Measurements as given in patent US12527779B2, “Prostaglandin E2 (PGE2) EP4 receptor antagonists” (Domain Therapeutics, priority 2019, dated 2026).
Values joined by “and” are separate entries in the source; they are usually repeats but may differ in a detail not shown here. Equal entries are not always repeated.

Tests used:
[1] = target: T1, human EP4 (hEP4) receptor (Homo sapiens, UniProt P35408); test: In vitro human EP4 functional antagonist activity using BRET biosensors (cAMP EPAC biosensor, TCS2510 stimulation); format: cell-based; settings: antagonist activity vs EC60 TCS2510, hEP4 in HEK-293 T cells
T1 construct: expressed in transfected cells; host or cells: HEK-293 T cells, transient co-transfection with polyethylenimine
T1 sequence (P35408 whole entry): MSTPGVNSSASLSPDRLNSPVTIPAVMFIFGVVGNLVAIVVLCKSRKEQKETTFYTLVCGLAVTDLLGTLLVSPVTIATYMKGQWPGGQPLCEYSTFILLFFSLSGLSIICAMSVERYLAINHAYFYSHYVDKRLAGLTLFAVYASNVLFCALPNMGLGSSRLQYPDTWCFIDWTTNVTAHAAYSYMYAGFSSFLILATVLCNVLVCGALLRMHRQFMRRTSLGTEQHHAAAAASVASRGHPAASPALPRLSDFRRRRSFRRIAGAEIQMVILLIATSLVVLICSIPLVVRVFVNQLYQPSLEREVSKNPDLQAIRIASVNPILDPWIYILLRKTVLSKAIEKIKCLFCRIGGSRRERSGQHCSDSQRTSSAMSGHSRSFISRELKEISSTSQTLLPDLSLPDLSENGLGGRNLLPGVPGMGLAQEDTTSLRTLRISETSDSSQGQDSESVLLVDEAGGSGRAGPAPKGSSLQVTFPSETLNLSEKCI
How it was run: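 HEK-293T cells transiently co-transfected with hEP4 and EPAC cAMP BRET biosensor (luciferase/GFP), assayed 48 h later in HEPES-buffered saline after 1 h at 22 °C. After 5 min with compound, cells stimulated with EC60 TCS2510 and BRET read for 10 min; IC50 from 10-point, 4.5-log variable-slope fits, duplicate, two experiments.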

MCA205 tumor cells = test: In vivo anti-tumoral activity of Example 166 in a MCA205 tumor model; parameters: species or system C57BL/6 mice
Experimental: Sarcoma MCA205 tumor cell line was cultured in vitro in DMEM supplemented with 10% FBS, 1% Penicillin-Streptomycin, 1 mM HEPES. Before inoculation in mice, cell viability was assessed by flow cytometry analysis and viable cell gating. A cell suspension was prepared according to the viable cell count.
Female C57BL/6 mice were inoculated subcutaneously in the right flank region with MCA205 tumor cells (0.5×10^6) in 0.1 ml of PBS for tumor development on day 1. Tumor volumes were measured thrice per week in two dimensions using a caliper, and the volume was expressed in mm^3 using the formula: “V=(L×W×W)/2”, where V is tumor volume, L is tumor length (the longest tumor dimension) and W is tumor width (the longest tumor dimension perpendicular to L). When the mean tumor size reached approximately 80 mm^3, mice were randomly allocated into groups (10 mice per group) and treated with or without an anti-PD-1 antibody (RPM1-14, 5 mg/kg, ip, on days 1, 4, 7, 10), with or without the compound of Example 166 (30 or 100 mg/kg, po, QD, 5% DMSO/95% (10% w/v solution of HP-3-CD in water) v/v) for 23 days).
Animals were checked daily for morbidity and mortality. During routine monitoring, the animals were checked for any effects on tumor growth and treatments on behavior such as mobility, food and water consumption, body weight gain/loss (body weights were measured thrice per week), eye/hair matting and any other abnormalities.

C[C@H](NC(=O)C1(N2CC[C@@H](Oc3cccc(C(F)(F)F)c3)C2)CC1)c1ccc(C(=O)O)cc1.Cl [Example 166, 4-[(1S)-1-[[1-[(3R)-3-[3-(Trifluoromethyl)phenoxy]pyrrolidin-1-yl]cyclopropane-1-carbonyl]amino]ethyl]benzoic acid, hydrochloride]
IC50 [1]: < 100 nM
Tumor Growth Inhibition TGI (%) (MCA205 tumor cells; Example 166 30 mg/kg po QD + anti-PD1 antibody 5 mg/kg ip, day 1): 0.1%
Tumor Growth Inhibition TGI (%) (MCA205 tumor cells; Example 166 30 mg/kg po QD + anti-PD1 antibody 5 mg/kg ip, day 3): 8.3%
Tumor Growth Inhibition TGI (%) (MCA205 tumor cells; Example 166 30 mg/kg po QD + anti-PD1 antibody 5 mg/kg ip, day 6): 30.6%
Tumor Growth Inhibition TGI (%) (MCA205 tumor cells; Example 166 30 mg/kg po QD + anti-PD1 antibody 5 mg/kg ip, day 8): 47.4%
Tumor Growth Inhibition TGI (%) (MCA205 tumor cells; Example 166 30 mg/kg po QD + anti-PD1 antibody 5 mg/kg ip, day 10): 58.6%
Tumor Growth Inhibition TGI (%) (MCA205 tumor cells; Example 166 30 mg/kg po QD + anti-PD1 antibody 5 mg/kg ip, day 13): 55.7%
Tumor Growth Inhibition TGI (%) (MCA205 tumor cells; Example 166 30 mg/kg po QD + anti-PD1 antibody 5 mg/kg ip, day 15): 49.3%
Tumor Growth Inhibition TGI (%) (MCA205 tumor cells; Example 166 30 mg/kg po QD + anti-PD1 antibody 5 mg/kg ip, day 17): 52.2%
Tumor Growth Inhibition TGI (%) (MCA205 tumor cells; Example 166 30 mg/kg po QD, day 1): −6.1%
Tumor Growth Inhibition TGI (%) (MCA205 tumor cells; Example 166 30 mg/kg po QD, day 3): −6.3%
Tumor Growth Inhibition TGI (%) (MCA205 tumor cells; Example 166 30 mg/kg po QD, day 6): −22.4%
Tumor Growth Inhibition TGI (%) (MCA205 tumor cells; Example 166 30 mg/kg po QD, day 8): 9.8%
Tumor Growth Inhibition TGI (%) (MCA205 tumor cells; Example 166 30 mg/kg po QD, day 10): 10.2%
Tumor Growth Inhibition TGI (%) (MCA205 tumor cells; Example 166 30 mg/kg po QD, day 13): 6.4%
Tumor Growth Inhibition TGI (%) (MCA205 tumor cells; Example 166 30 mg/kg po QD, day 15): 4.3%
Tumor Growth Inhibition TGI (%) (MCA205 tumor cells; Example 166 30 mg/kg po QD, day 17): 10.8%
Tumor Growth Inhibition TGI (%) (MCA205 tumor cells; Example 166 100 mg/kg po QD + anti-PD1 antibody 5 mg/kg ip, day 1): 1.4%
Tumor Growth Inhibition TGI (%) (MCA205 tumor cells; Example 166 100 mg/kg po QD + anti-PD1 antibody 5 mg/kg ip, day 3): 12.2%
Tumor Growth Inhibition TGI (%) (MCA205 tumor cells; Example 166 100 mg/kg po QD + anti-PD1 antibody 5 mg/kg ip, day 6): 34.3%
Tumor Growth Inhibition TGI (%) (MCA205 tumor cells; Example 166 100 mg/kg po QD + anti-PD1 antibody 5 mg/kg ip, day 8): 50.2%
Tumor Growth Inhibition TGI (%) (MCA205 tumor cells; Example 166 100 mg/kg po QD + anti-PD1 antibody 5 mg/kg ip, day 10): 66.6%
Tumor Growth Inhibition TGI (%) (MCA205 tumor cells; Example 166 100 mg/kg po QD + anti-PD1 antibody 5 mg/kg ip, day 13): 70.4%
Tumor Growth Inhibition TGI (%) (MCA205 tumor cells; Example 166 100 mg/kg po QD + anti-PD1 antibody 5 mg/kg ip, day 15): 67.3%
Tumor Growth Inhibition TGI (%) (MCA205 tumor cells; Example 166 100 mg/kg po QD + anti-PD1 antibody 5 mg/kg ip, day 17, hydrochloride): 68.0% and 68.1%
Tumor Growth Inhibition TGI (%) (MCA205 tumor cells; Example 166 100 mg/kg po QD, day 1): −0.7%
Tumor Growth Inhibition TGI (%) (MCA205 tumor cells; Example 166 100 mg/kg po QD, day 3): 13.2%
Tumor Growth Inhibition TGI (%) (MCA205 tumor cells; Example 166 100 mg/kg po QD, day 6): 12.1%
Tumor Growth Inhibition TGI (%) (MCA205 tumor cells; Example 166 100 mg/kg po QD, day 8): 16.7%
Tumor Growth Inhibition TGI (%) (MCA205 tumor cells; Example 166 100 mg/kg po QD, day 10): 25.7%
Tumor Growth Inhibition TGI (%) (MCA205 tumor cells; Example 166 100 mg/kg po QD, day 13): 32.6%
Tumor Growth Inhibition TGI (%) (MCA205 tumor cells; Example 166 100 mg/kg po QD, day 15): 23.6%
Tumor Growth Inhibition TGI (%) (MCA205 tumor cells; Example 166 100 mg/kg po QD, day 17, hydrochloride, 100 mg/kg): 31.0%
